3 molecules from patent EP0699675A2, “3-(4-(1-Substituted-4-piperazinyl)butyl)-4-thiazolidinone and related compounds” (HOECHST-ROUSSEL PHARMACEUTICALS INCORPORATED, priority 1994, dated 1996) can be followed below.

The subject of the assay is CK-1 male mice. Put plainly: climbing mice assay (apomorphine-induced climbing), antipsychotic activity. In kind it is in vivo. Conditions: 30 minutes prior to apomorphine 1.5 mg/kg subcutaneously, climbing scores totaled over readings at 10, 20 and 30 minutes, control group set to 100%. Here is the method: Antipsychotic activity is determined in the climbing mice assay by methods similar to those described by P. Protais, et al., Psychopharmacol., 50, 1 (1976) and B. Costall, Eur. J. Pharmacol., 50, 39 (1978).
The subject CK-1 male mice (23-27 grams) are group-housed under standard laboratory conditions. The mice are individually placed in wire mesh stick cages (4" x 4" by 10") and are allowed one hour for adaptation and exploration of the new environment. Then apomorphine is injected subcutaneously at 1.5 mg/kg, a dose causing climbing in all subjects for 30 minutes. Compounds to be tested for antipsychotic activity are injected intraperitoneally 30 minutes prior to the apomorphine challenge at a screening dose of 10mg/kg.
For evaluation of climbing, 3 readings are taken at 10,20 and 30 minutes after apomorphine administration according to the following scale:
Mice consistently climbing before the injection of apomorphine are discarded.
With full-developed apomporphine climbing, the animals are hanging onto the cage walls, rather motionless, over longer periods of time. By contrast, climbs due to mere motor stimulation usually last only a few seconds.
The climbing scores are individually totaled (maximum score: 6 per mouse over 3 readings) and the total score of the control group (vehicle intraperitoneally-apomorphine subcutaneously) is set to 100%. ED₅₀ value with 95% confidence limits, calculated by a linear regression analysis of some of the compounds of this invention.

SMILES strings stand for the structures. Where a name gives a salt, the structure may show the parent alone.

As for `CC1SC(C)(C)C(=O)N1CCCCN1CCC(c2csc3ccccc23)CC1.O=C(O)/C=C\C(=O)O` (stereo not drawn) [3-[4-[4-(Benzo[b]thien-3-yl)-1-piperidinyl]butyl]-2,5,5-trimethyl-4-thiazolidinone maleate], the “Antipsychotic Activity Score” value (Dose 9.5 mg/kg ip) was 50%.
With `CC1SC(C)(C)C(=O)N1CCCCN1CCC(c2cc3ccccc3s2)CC1` (stereo not drawn) [3-[4-[4-[Benzo[b]thien-2yl)-1-piperidinyl[butyl]-2,5,5-trimethyl-4-thiazolidinone hydrochloride], the “Antipsychotic Activity Score” value (Dose 20 mg/kg ip) amounted to 44%.
Turning to `CC1(C)C(=O)N(CCCCN2CCC(c3csc4ccccc34)CC2)CS1(=O)=O` [3-[4-[4-[Benzo[b]thien-3-yl)-1-piperidinyl]butyl]-5,5-dimethyl-1,1-dioxo-4-thiazolidinone], the “Antipsychotic Activity Score” value (Dose 20 mg/kg ip) is listed as 98%.
